The target in one experiment is T1, HUWE1 (Homo sapiens, UniProt Q7Z6Z7).
T1 construct: expressed in transfected cells; host or cells: HeLa
Nature of the experiment: In vivo (cellular) ubiquitination of MCL1 by ectopic HA-HUWE1 in HeLa cells. The experiment is classed as cell-based. The settings on record: HeLa cells transfected with MCL1, His-ubiquitin, inhibitor 16 hrs, read-out: IC50 relative MCL1 ubiquitination. An excerpt: HeLa cells were transfected with plasmids expressing MCL1, His-ubiquitin, and HA-HUWE1. […] After lysis, ubiquitin-modified proteins were recovered by Ni-NTA-Agarose and immunoblots of the eluates were probed with an antibody against MCL1. […] At the same time, cells were irradiated with 500 J/m^2 UVB and harvested after indicated time points. Immunoblots of the lysates were probed with antibodies recognizing either MCL1 or CDK2 as control. Quantification of the MCL1 protein levels for the according experiment is shown directly below the immunoblots. Diagrams below the immunoblots show mean protein levels ± SD (n = 5). From the data, the half-life of the MCL1 protein was determined with P-values calculated using a Student's t-test. • Effects of HUWE1 inhibition on levels of TopBP1. […] Cell lysates were fractionated in chromatin-bound and soluble non-chromatin-bound fractions. Immunoblots of the soluble fraction were incubated with indicated antibodies.
To test the efficacy of both compounds in tissue culture, we initially confirmed observations that HUWE1 ubiquitinates and degrades MCL1 in response to DNA damage (Zhong et al, [2005]). Consistent with these published data, steady-state levels of MCL1 decreased rapidly upon UV irradiation of U2OS cells and depletion of HUWE1 both enhanced steady-state levels of MCL1 and retarded the decrease upon UV irradiation (Supplementary Fig S4A). […]

The next experiment deals with T2, NEDD4 (Homo sapiens, UniProt P46934).
T2 construct: HECT-domains of multiple ligases auto-ubiquitinate in in vitro assays containing both UBA1 and UbcH5b
Nature of the experiment: in vitro HECT-domain auto-ubiquitination assay, NEDD4. The experiment is classed as biochemical.

This note sets out measurements from publication PMC4287973, “Tumor cell-specific inhibition of MYC function using small molecule inhibitors of the HUWE1 ubiquitin ligase” (EMBO Molecular Medicine, 2014).

Each structure is given as a SMILES string.

T1 sequence (Q7Z6Z7 whole entry): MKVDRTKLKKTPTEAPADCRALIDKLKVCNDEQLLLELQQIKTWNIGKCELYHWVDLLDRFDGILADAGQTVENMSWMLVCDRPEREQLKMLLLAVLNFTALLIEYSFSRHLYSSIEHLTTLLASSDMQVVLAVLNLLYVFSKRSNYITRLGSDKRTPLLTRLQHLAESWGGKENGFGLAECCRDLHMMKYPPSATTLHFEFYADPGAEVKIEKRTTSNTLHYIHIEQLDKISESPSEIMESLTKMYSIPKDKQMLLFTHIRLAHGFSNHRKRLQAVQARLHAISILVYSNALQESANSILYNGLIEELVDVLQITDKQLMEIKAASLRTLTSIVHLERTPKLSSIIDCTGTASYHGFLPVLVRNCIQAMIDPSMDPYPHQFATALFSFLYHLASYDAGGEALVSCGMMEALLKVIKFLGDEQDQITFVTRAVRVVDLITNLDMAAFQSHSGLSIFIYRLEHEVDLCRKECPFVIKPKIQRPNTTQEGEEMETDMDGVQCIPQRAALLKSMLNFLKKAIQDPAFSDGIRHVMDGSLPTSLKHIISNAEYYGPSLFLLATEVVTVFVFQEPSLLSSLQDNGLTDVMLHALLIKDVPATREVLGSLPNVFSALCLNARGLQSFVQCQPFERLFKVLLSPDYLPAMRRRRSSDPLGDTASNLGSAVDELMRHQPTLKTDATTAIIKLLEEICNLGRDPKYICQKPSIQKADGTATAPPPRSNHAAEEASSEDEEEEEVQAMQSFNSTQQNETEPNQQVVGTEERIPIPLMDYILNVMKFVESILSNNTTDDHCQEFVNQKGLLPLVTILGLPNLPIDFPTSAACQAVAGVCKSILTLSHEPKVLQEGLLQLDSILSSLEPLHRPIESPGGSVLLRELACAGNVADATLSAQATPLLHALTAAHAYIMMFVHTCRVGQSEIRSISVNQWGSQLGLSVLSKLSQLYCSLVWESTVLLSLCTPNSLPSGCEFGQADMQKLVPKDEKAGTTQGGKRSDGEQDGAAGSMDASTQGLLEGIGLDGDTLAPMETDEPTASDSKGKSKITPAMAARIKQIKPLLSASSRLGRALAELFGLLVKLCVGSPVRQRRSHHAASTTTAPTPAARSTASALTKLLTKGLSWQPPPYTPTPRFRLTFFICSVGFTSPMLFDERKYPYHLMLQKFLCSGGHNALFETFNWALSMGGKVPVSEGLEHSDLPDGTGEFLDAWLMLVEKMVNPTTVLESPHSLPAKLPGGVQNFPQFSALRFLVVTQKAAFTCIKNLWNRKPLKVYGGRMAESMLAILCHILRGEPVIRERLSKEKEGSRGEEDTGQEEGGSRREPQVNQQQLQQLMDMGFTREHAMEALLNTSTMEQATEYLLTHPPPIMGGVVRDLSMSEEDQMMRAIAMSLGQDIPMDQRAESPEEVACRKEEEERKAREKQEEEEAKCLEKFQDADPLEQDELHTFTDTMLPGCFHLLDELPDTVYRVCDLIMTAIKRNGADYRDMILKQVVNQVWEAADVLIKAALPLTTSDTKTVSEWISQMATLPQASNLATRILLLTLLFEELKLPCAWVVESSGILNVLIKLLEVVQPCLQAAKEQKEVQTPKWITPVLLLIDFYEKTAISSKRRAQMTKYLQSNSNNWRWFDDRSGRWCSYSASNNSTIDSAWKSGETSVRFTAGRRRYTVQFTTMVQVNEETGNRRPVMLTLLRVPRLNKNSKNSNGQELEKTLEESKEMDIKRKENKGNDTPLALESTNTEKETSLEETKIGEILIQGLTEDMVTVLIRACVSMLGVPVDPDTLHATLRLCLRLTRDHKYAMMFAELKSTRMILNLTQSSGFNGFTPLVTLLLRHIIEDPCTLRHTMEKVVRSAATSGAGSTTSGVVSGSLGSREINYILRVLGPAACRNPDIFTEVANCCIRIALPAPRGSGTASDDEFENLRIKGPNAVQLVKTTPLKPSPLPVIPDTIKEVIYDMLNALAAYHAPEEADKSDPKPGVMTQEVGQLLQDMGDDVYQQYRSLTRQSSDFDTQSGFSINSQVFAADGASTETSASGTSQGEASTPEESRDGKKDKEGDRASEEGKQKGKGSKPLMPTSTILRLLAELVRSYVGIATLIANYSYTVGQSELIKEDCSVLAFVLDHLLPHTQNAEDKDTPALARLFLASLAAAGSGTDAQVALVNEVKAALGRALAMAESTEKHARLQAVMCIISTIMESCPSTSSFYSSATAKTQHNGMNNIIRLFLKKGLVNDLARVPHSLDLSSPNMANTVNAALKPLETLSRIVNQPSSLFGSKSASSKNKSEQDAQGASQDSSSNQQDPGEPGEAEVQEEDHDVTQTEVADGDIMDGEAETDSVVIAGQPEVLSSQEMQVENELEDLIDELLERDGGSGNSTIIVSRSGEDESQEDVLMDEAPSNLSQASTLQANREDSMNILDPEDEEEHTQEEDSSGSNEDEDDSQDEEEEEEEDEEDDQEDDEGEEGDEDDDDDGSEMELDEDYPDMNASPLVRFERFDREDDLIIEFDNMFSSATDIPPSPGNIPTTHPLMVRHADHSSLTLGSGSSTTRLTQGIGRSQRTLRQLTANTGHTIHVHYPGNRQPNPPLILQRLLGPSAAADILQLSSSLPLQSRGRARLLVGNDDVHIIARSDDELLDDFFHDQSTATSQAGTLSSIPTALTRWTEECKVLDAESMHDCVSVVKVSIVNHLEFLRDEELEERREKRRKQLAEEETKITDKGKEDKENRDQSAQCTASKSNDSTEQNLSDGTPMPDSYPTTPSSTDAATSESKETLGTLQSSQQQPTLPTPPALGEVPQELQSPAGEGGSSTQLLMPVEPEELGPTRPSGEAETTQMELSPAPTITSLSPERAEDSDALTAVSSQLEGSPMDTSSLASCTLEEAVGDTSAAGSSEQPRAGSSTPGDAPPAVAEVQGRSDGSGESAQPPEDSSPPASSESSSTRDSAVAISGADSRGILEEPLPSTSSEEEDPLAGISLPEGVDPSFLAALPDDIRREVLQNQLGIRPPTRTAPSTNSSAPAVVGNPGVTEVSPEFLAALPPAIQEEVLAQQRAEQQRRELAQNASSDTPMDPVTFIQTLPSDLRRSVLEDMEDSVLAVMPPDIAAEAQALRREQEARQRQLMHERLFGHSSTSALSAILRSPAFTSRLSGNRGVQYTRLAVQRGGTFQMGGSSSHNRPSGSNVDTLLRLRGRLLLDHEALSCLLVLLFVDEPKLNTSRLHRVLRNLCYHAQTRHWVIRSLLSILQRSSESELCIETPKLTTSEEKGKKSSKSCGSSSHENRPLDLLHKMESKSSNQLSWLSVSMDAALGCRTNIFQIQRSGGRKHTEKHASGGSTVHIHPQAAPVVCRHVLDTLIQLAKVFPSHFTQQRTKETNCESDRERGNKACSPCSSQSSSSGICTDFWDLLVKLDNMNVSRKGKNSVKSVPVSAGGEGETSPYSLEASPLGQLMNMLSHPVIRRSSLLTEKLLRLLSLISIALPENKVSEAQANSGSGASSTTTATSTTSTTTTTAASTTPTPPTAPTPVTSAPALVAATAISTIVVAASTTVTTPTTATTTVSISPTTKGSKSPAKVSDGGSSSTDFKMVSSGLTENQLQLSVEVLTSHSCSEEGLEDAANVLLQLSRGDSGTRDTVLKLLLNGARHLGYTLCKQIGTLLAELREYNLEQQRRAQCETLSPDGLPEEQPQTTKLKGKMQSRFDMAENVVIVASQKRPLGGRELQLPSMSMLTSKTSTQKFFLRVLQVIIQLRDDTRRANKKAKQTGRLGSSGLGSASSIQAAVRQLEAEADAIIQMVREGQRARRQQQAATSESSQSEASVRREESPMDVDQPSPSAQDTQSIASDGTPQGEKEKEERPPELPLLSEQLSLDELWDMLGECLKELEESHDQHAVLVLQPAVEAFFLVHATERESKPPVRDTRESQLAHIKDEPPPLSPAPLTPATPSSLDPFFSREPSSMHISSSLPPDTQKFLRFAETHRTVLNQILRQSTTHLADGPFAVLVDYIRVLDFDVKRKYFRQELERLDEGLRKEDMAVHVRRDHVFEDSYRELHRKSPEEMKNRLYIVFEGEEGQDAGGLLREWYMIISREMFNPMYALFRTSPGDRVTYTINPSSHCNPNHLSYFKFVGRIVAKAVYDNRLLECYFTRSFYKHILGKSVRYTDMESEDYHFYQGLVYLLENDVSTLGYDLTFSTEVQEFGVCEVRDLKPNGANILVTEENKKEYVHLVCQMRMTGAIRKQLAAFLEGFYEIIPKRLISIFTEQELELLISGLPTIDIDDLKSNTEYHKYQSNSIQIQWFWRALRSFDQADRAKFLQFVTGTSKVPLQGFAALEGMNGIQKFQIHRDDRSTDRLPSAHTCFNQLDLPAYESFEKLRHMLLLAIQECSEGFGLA
T2 sequence (P46934 984-1318 limits assumed, species assumed): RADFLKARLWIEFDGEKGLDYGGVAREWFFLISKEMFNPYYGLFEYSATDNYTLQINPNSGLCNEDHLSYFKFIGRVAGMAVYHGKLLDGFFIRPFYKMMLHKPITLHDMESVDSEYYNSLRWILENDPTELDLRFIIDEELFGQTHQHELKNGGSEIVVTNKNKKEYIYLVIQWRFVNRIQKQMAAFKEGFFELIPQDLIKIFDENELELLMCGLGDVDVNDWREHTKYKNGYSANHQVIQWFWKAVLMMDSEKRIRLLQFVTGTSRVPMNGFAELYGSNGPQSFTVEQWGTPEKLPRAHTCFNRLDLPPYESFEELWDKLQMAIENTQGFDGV
Method for NEDD4: Briefly, the HECT-domain of HUWE1 was biotin-tagged, attached to streptavidin-coated 96-well plates, and incubated with UBA1, UbcH5b, a ubiquitin-conjugating enzyme that supports HUWE1 activity in vitro (Adhikary et al, [2005]), ATP, and MYC-tagged ubiquitin. Auto-ubiquitination was detected using a europium-labeled MYC antibody and appropriate detection reagents (Fig3A). […] These assays were used to analyze the specificity of the identified inhibitors.

Usually IC50 stands for the midpoint of a concentration-inhibition curve. Regarding `Cc1c(C(=O)Nc2ccc(CN)cc2)ncnc1N1CCC(C#N)(c2ccccc2)CC1` [BI8622], the figures for the IC50 on HUWE1 and against NEDD4 were 6.8 µM and over 50 µM, respectively.
